Source: ChEMBL document CHEMBL4765305, “Elephantopinolide A-P, germacrane-type sesquiterpene lactones from Elephantopus scaber induce apoptosis, autophagy and G2/M phase arrest in hepatocellular carcinoma cells” (Eur J Med Chem, 2020)
Active and inactive are the calls of the source. No cut-off for these calls is given here.

What was measured:
HepG2 [1] = assay: Activation of JNK phosphorylation in human HepG2 cells by Western blot analysis; assay type: cell-based; details: filed as activator, dose 3-9 µM
HepG2 [2] = assay: Induction of cell cycle arrest in human HepG2 cells assessed as accumulation at G2/M phase by PI-staining based flow cytometric analysis; assay type: functional
Hep 3B2 [3] = assay: Induction ROS generation in human Hep3B cells assessed as intracellular ROS level measured after 15 mins by H2DCF-DA probe based flow cytometry (reference value: 4.24 %); assay type: functional; details: 0.25 h
HepG2 [4] = assay: Induction of apoptosis in human HepG2 cells assessed as decrease in PARP level at 3 to 9 uM measured by western blot analysis; assay type: functional, cell-based; details: dose 3-9 µM
HepG2 [5] = assay: Induction of apoptosis in human HepG2 cells assessed as increase in Bax level at 3 to 9 uM measured by western blot analysis; assay type: functional, cell-based; details: dose 3-9 µM
HepG2 [6] = assay: Induction of autophagy in human HepG2 cells at 9 uM by MDC staining based flow cytometry analysis (reference value: 4.46%); assay type: functional
HepG2 [7] = assay: Induction of apoptosis in human HepG2 cells assessed as late apoptotic cells at 6 uM incubated for 48 hrs by AnnexinV-FITC and propidium iodide staining based flow cytometry analysis (reference value: 2.46%); assay type: functional
Hep 3B2 [8] = assay: Induction of apoptosis in human Hep3B cells assessed as nuclear condensation at 3 to 9 uM incubated for 48 hrs by Hoechst 33258 staining based fluorescence microscopy analysis; assay type: functional, cell-based; details: dose 3-9 µM
HepG2 [9] = assay: Induction ROS generation in human HepG2 cells assessed as intracellular ROS level measured after 4 hrs by H2DCF-DA probe based flow cytometry (reference value: 5.05%); assay type: functional
Hep 3B2 [10] = assay: Induction of cell cycle arrest in human Hep3B cells assessed as accumulation at G2/M phase by PI-staining based flow cytometric analysis; assay type: functional
Hep 3B2 [11] = assay: Induction of apoptosis in human Hep3B cells assessed as early apoptotic cells at 3 uM incubated for 48 hrs by AnnexinV-FITC and propidium iodide staining based flow cytometry analysis (reference value: 3.05%); assay type: functional
HepG2 [12] = assay: Induction of apoptosis in human HepG2 cells assessed as early apoptotic cells at 9 uM incubated for 48 hrs by AnnexinV-FITC and propidium iodide staining based flow cytometry analysis (reference value: 2.45%); assay type: functional
HepG2 [13] = assay: Induction of apoptosis in human HepG2 cells assessed as late apoptotic cells at 9 uM incubated for 48 hrs by AnnexinV-FITC and propidium iodide staining based flow cytometry analysis (reference value: 2.46%); assay type: functional
HepG2 [14] = assay: Induction of mitochondrial membrane potential loss in human HepG2 cells measured after 48 hrs by JC-1 staining based flow cytometry analysis; assay type: functional, cell-based; details: dose 3-9 µM
Hep 3B2 [15] = assay: Induction ROS generation in human Hep3B cells assessed as intracellular ROS level measured after 30 mins by H2DCF-DA probe based flow cytometry (reference value: 4.24 %); assay type: functional; details: 0.5 h
Hep 3B2 [16] = assay: Induction of autophagy in human Hep3B cells at 9 uM by MDC staining based flow cytometry analysis (reference value: 3.52%); assay type: functional
HepG2 [17] = assay: Induction ROS generation in human HepG2 cells assessed as intracellular ROS level measured after 1 hrs by H2DCF-DA probe based flow cytometry (reference value: 5.05%); assay type: functional
HepG2 [18] = assay: Induction of apoptosis in human HepG2 cells assessed as membrane blebbing upto 9 uM incubated for 48 hrs by phase contrast microscopy; assay type: functional, cell-based; details: dose microM <=9, time 48.0 hrs
Hep 3B2 [19] = assay: Induction of autophagy in human Hep3B cells at 6 uM by MDC staining based flow cytometry analysis (reference value: 3.52%); assay type: functional
Hep 3B2 [20] = assay: Induction of apoptosis in human Hep3B cells assessed as late apoptotic cells at 9 uM incubated for 48 hrs by AnnexinV-FITC and propidium iodide staining based flow cytometry analysis (reference value: 3.32%); assay type: functional
HepG2 [21] = assay: Induction ROS generation in human HepG2 cells assessed as intracellular ROS level measured after 15 mins by H2DCF-DA probe based flow cytometry (reference value: 5.05%); assay type: functional; details: 0.25 h
HepG2 [22] = assay: Induction of apoptosis in human HepG2 cells assessed as early apoptotic cells at 6 uM incubated for 48 hrs by AnnexinV-FITC and propidium iodide staining based flow cytometry analysis (reference value: 2.45%); assay type: functional
HepG2 [23] = assay: Activation of ERK phosphorylation in human HepG2 cells by Western blot analysis; assay type: cell-based; details: filed as activator, dose 3-9 µM
HepG2 [24] = assay: Induction of apoptosis in human HepG2 cells assessed as early apoptotic cells at 3 uM incubated for 48 hrs by AnnexinV-FITC and propidium iodide staining based flow cytometry analysis (reference value: 2.45%); assay type: functional
Hep 3B2 [25] = assay: Induction of apoptosis in human Hep3B cells assessed as cell shrinkage upto 9 uM incubated for 48 hrs by phase contrast microscopy; assay type: functional, cell-based; details: dose microM <=9, time 48.0 hrs
Hep 3B2 [26] = assay: Induction of apoptosis in human Hep3B cells assessed as late apoptotic cells at 6 uM incubated for 48 hrs by AnnexinV-FITC and propidium iodide staining based flow cytometry analysis (reference value: 3.32%); assay type: functional
HepG2 [27] = assay: Induction of apoptosis in human HepG2 cells assessed as increase in cleaved caspase-3 activity measured by western blot analysis; assay type: functional, cell-based; details: dose 3-9 µM
Hep 3B2 [28] = assay: Induction of apoptosis in human Hep3B cells assessed as membrane blebbing upto 9 uM incubated for 48 hrs by phase contrast microscopy; assay type: functional, cell-based; details: dose microM <=9, time 48.0 hrs
HepG2 [29] = assay: Induction of apoptosis in human HepG2 cells assessed as decrease in Bcl-2 level measured by western blot analysis; assay type: functional, cell-based; details: dose 3-9 µM
HepG2 [30] = assay: Induction of autophagy in human HepG2 cells at 6 uM by MDC staining based flow cytometry analysis (reference value: 4.46%); assay type: functional
Hep 3B2 [31] = assay: Induction of autophagy in human Hep3B cells at 3 uM by MDC staining based flow cytometry analysis (reference value: 3.52%); assay type: functional
Hep 3B2 [32] = assay: Induction of apoptosis in human Hep3B cells assessed as nuclear fragmentation at 3 to 9 uM incubated for 48 hrs by Hoechst 33258 staining based fluorescence microscopy analysis; assay type: functional, cell-based; details: dose 3-9 µM
HepG2 [33] = assay: Induction of autophagy in human HepG2 cells at 3 uM by MDC staining based flow cytometry analysis (reference value: 4.46%); assay type: functional
HepG2 [34] = assay: Induction of apoptosis in human HepG2 cells assessed as nuclear fragmentation at 3 to 9 uM incubated for 48 hrs by Hoechst 33258 staining based fluorescence microscopy analysis; assay type: functional, cell-based; details: dose 3-9 µM
HepG2 [35] = assay: Induction of apoptosis in human HepG2 cells assessed as cell shrinkage upto 9 uM incubated for 48 hrs by phase contrast microscopy; assay type: functional, cell-based; details: dose microM <=9, time 48.0 hrs
HepG2 [36] = assay: Activation of p-38 phosphorylation in human HepG2 cells by Western blot analysis; assay type: cell-based; details: filed as activator, dose 3-9 µM
HepG2 [37] = assay: Induction ROS generation in human HepG2 cells assessed as intracellular ROS level measured after 30 mins by H2DCF-DA probe based flow cytometry (reference value: 5.05%); assay type: functional; details: 0.5 h
Hep 3B2 [38] = assay: Induction of apoptosis in human Hep3B cells assessed as increase in caspase-3 activity measured after 2 hrs by microplate reader; assay type: functional, cell-based; details: dose 3-9 µM
Hep 3B2 [39] = assay: Induction of apoptosis in human Hep3B cells assessed as early apoptotic cells at 6 uM incubated for 48 hrs by AnnexinV-FITC and propidium iodide staining based flow cytometry analysis (reference value: 3.05%); assay type: functional
HepG2 [40] = assay: Anti-hepatoma activity against human HepG2 cells assessed as cell growth inhibition by MTT assay; assay type: functional, cell-based

C=C(C)C(=O)O[C@H]1CC2=C[C@@H](C[C@@]3(C)O[C@H]3[C@H]3OC(=O)C(=C)[C@@H]31)OC2=O
Activity (HepG2 [1]): Dose-dependent effect | Activity (HepG2 [2]): Active | Activity (Hep 3B2 [3]): 19.5% | Activity (HepG2 [4]): Active | Activity (HepG2 [5]): Active | Activity (HepG2 [6]): 65.9% | Activity (HepG2 [7]): 13.2% | Activity (Hep 3B2 [8]): Active | Activity (HepG2 [9]): 6.58% | Activity (Hep 3B2 [10]): Active | Activity (Hep 3B2 [11]): 5.14% | Activity (HepG2 [12]): 37.8% | Activity (HepG2 [13]): 29.1% | Activity (HepG2 [14]): Dose-dependent effect | Activity (Hep 3B2 [15]): 22.8% | Activity (Hep 3B2 [16]): 69.6% | Activity (HepG2 [17]): 14.6% | Activity (HepG2 [18]): Active | Activity (Hep 3B2 [19]): 39.2% | Activity (Hep 3B2 [20]): 31.9% | Activity (HepG2 [21]): 19.9% | Activity (HepG2 [22]): 33.7% | Activity (HepG2 [23]): Dose-dependent effect | Activity (HepG2 [24]): 14.9% | Activity (Hep 3B2 [25]): Active | Activity (Hep 3B2 [26]): 11.9% | Activity (HepG2 [27]): Dose-dependent effect | Activity (Hep 3B2 [28]): Active | Activity (HepG2 [29]): Dose-dependent effect | Activity (HepG2 [30]): 28.2% | Activity (Hep 3B2 [31]): 15.7% | Activity (Hep 3B2 [32]): Active | Activity (HepG2 [33]): 9.52% | Activity (HepG2 [34]): Active | Activity (HepG2 [35]): Active | Activity (HepG2 [36]): Dose-dependent effect | Activity (HepG2 [37]): 28.9% | Activity (Hep 3B2 [38]): Dose-dependent effect | Activity (Hep 3B2 [39]): 18.2% | IC50 (HepG2 [40]): 2830 nM
